Results on two compounds are retold here after US7763645B2, “Carvedilol dihydrogen phosphate monohydrate” (Wanbury Limited, priority 2008, dated 2010).

Series [1] can be described thus: Dissolution study of capsule formulation (USP Type 1). Type of series: physicochemical. The conditions noted are these: 0.1 N hydrochloric acid; for % Dissolved: 100 rpm. Here is the method: The dissolution rate of carvedilol dihydrogen phosphate monohydrate as a capsule formulation was compared with that of carvedilol phosphate hemihydrate similarly prepared.
The samples for the dissolution study were prepared as follows:
Carvedilol phosphate, 25.0 mg, was accurately weighed along with lactose and other fillers. The mix was filled inside a colorless gelatin capsule shell, size #2. Six such capsules were subjected to dissolution studies, each for the monohydrate and hemi-hydrate material.
The intrinsic solubility of the monohydrate form versus the hemihydrate form of carvedilol is done using the general guidelines for characterizing the dissolution rate as per the United States Pharmacopoeia.
The dissolution conditions were:
Medium: 0.1 N hydrochloric acid, 900 ml
Speed of rotations: 100 per minute.
Temp: 37 degree±0.05 degrees.
The percent dissolved: was determined by UV spectrophotometry at a wavelength of 280 nm.

Series [2] can be described thus: Hydrate stability: drying at 110° C. and re-exposure to 75% relative humidity at 37° C. It counts as physicochemical. The procedure:
The carvedilol dihydrogen phosphate monohydrate prepared by the present processes is dried till constant weight for 4-10 hours at 40-45° C. under vacuum to obtain carvedilol dihydrogen phosphate monohydrate having bound water content in the range of 3.0-4.0% wt/wt; the theoretical moisture content for carvedilol dihydrogen phosphate monohydrate is 3.54% wt/wt. Further, the bound water content was removed by drying the material at 110° C. till the moisture content below 0.5%. The original moisture content was regained after about 10-15 hours when exposed to 75% relative humidity at 37° C. (in air).

The mark [3] stands for this setting: 10 min, 25.0 mg capsule, 900 ml, 37 degree.
[4] abbreviates: 20 min, 25.0 mg capsule, 900 ml, 37 degree.
Where [5] appears, read: 30 min, 25.0 mg capsule, 900 ml, 37 degree.
[6] abbreviates: 45 min, 25.0 mg capsule, 900 ml, 37 degree.
[7] abbreviates: 60 min, 25.0 mg capsule, 900 ml, 37 degree.

Consider `COc1ccccc1OCCNCC(O)COc1cccc2[nH]c3ccccc3c12.O=P(O)(O)O` (centres unmarked) [Monohydrate form, 1-(9H-carbazol-4-yloxy)-3-[[2-(2-methoxyphenoxy)ethyl]amino]-propan-2-ol], for which, in series [1] (25.0 mg capsule, 900 ml, 37 degree), the “Time to complete dissolution” value was at most 90 min. Moreover, the “% Dissolved” value is listed as 46.20% in series [1] (setting [3]); 68.28% in series [1] (setting [4]); 82.45% in series [1] (setting [5]); 95.89% in series [1] (setting [6]); 96.81% in series [1] (setting [7]); 101.55% in series [1] (90 min, 25.0 mg capsule, 900 ml, 37 degree). In addition, the “Rate of dissolution compared with hemihydrate form” value in series [1] (capsule) is recorded as “faster rate of dissolution than the hemihydrate form”. Also, the “Time to regain original moisture content” value in series [2] (after drying at 110° C. to moisture below 0.5%, exposed to 75% relative humidity at 37° C. (in air)) was in the range of 10 to 15 h. Moreover, the “Stability of hydrate form” value in series [2] (drying at 110° C., then 75% relative humidity at 37° C. (in air)) is “stable and does not convert into the dihydrate or hemihydrate form”.

“Carvedilol Dihydrogen Phosphate Hemihydrate [Hemihydrate form, reference compound]”: the “% Dissolved” value came to 45.95% in series [1] (setting [3]); 63.75% in series [1] (setting [4]); 68.43% in series [1] (setting [5]); 75.99% in series [1] (setting [6]); 82.68% in series [1] (setting [7]); 88.95% in series [1] (90 min, 25.0 mg capsule, 900 ml, 37 degree, Phosphate Hemihydrate). Also, the “% Dissolved” value in series [1] (90 min, 25.0 mg capsule, 900 ml, 37 degree, listed as hemihydrate form, Phosphate Hemihydrate) is on record as “less than 90%”.
